Laboratory results from US20060173015A1, “Cyclohexyldiamines as selective alpha 1a/1d adrenoreceptor antagonists for the treatment of benign prostatic hypertrophy and lower urinary tract symptoms” (priority 2004, published 2006).
Read-outs that look alike come from different tables or passages of the source.

Key:
α1d-AR = biological target: T1, α1d-AR (Homo sapiens, UniProt P25100); experiment: α1-Adrenergic receptor radio-ligand (125I-HEAT) binding assay, α1d subtype
T1 construct: expressed in transfected cells; host or cells: COS-7
T1 sequence (P25100 1-572): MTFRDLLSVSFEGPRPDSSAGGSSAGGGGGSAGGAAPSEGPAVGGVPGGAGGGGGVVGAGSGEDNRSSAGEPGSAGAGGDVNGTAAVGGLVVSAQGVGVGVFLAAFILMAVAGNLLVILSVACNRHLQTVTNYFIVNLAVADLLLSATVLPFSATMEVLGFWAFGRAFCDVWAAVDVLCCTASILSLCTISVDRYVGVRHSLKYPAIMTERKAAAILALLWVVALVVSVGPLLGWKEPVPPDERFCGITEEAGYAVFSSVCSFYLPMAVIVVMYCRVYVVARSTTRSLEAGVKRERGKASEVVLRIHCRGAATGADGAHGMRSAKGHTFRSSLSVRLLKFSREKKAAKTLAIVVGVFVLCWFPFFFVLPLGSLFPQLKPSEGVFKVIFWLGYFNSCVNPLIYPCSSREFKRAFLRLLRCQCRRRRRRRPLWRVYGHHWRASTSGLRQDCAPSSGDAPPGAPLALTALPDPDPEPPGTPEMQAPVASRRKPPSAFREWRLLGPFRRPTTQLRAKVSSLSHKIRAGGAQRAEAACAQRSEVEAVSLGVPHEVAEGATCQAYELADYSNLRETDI
Experimental: α1-Adrenergic Receptor Binding Assay: Preparation of COS Cell Membranes
Membranes were prepared from COS-7 cells that had been transfected with one of the three α1-AR subtypes by the following method. COS cells from ten 100 mm tissue culture plates were scraped into 5 mL TE (50 mM Tris-HCl, 5 mM EDTA, pH 7.4). The cell suspension was disrupted with a Brinkman Polytron, setting 8, for 10 sec. The disrupted cells were centrifuged at 1000×g for 10 min at 4° C. Supernatants were centrifuged at 34,500×g for 20 min at 4° C. The membrane pellets were suspended in 2 mL TNE (50 mM Tris-HCl, 5 mM EDTA, 150 mM NaCl, pH7.4). An aliquot of the membrane suspension was stored at −70° C. until use. The protein concentration was determined using the BioRad DC protein assay kit following membrane solubilization with Triton X-100.
Radio-Ligand Binding Assay
Triplicate determinations of radio-ligand binding in the presence of increasing: concentrations of testing compound were made. The reagents were added to 96-well polypropylene plate wells using the Biomek 1000 robot (Beckman Instruments). […] The plate was incubated at rt for 1 hr. The contents of the wells were filtered through a GF/C membrane Unifilter plate (Packard Instruments) using the Packard Filtermate cell harvester. The filter plates were dried in a vacuum oven for 30 min at 40° C. 25 μL Microscint 20 liquid scintillation fluid (Packard Instuments) was added to each well. The radioactive content was analyzed in the TopCount microplate scintillation counter (Packard Instruments).

α1b-AR = biological target: T2, α1b-AR (Homo sapiens, UniProt P35368); experiment: α1-Adrenergic receptor radio-ligand (125I-HEAT) binding assay, α1b subtype; details: Receptor Binding, Ki α1b-AR, COS-7 cell membranes, 125I-HEAT
T2 sequence (P35368 1-520): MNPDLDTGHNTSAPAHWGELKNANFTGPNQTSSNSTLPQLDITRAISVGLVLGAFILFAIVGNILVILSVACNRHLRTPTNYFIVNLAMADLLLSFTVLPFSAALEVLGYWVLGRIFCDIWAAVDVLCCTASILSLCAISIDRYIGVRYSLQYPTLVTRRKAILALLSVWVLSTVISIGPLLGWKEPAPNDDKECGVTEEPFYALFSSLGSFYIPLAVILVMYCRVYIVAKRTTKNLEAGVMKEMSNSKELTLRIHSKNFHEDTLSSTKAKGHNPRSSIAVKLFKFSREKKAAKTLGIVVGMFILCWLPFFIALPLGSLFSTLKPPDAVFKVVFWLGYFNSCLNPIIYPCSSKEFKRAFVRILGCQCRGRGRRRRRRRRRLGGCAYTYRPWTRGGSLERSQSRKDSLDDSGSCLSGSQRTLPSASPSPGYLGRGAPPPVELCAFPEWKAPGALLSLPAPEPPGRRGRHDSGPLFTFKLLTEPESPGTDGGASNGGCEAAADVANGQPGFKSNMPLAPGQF

[1] = Receptor Binding, Ki α1d-AR, COS-7 cell membranes, 125I-HEAT
[2] = COS-7 cell membranes, 125I-HEAT, read-out: Receptor Binding, Ki α1d-AR

SMILES | Ki (α1d-AR) | Ki (α1b-AR) | Ki (α1d-AR; [1]) | Ki (α1d-AR; [2])
CC(C)Oc1ccccc1N1CCN([C@H]2CC[C@@H](NS(=O)(=O)c3ccc(Cl)cc3F)CC2)CC1 [Cpd 24, 4-Chloro-2-fluoro-N-cis-{4-[4-(2-isopropoxy-phenyl)-piperazin-1-yl]-cyclohexyl}-benzenesulfonamide] | 1.5 nM | 101 nM | – | –
CC(C)Oc1ccccc1N1CCN([C@H]2CC[C@@H](NS(=O)(=O)c3cccc(C(F)(F)F)c3)CC2)CC1 [Cpd 16, N-cis-{4-[4-(2-Isopropoxy-phenyl)-piperazin-1-yl]-cyclohexyl}-3-trifluoromethyl-benzenesulfonamide] | – | 222 nM | – | –
COc1ccc(OC)c(S(=O)(=O)N[C@H]2CC[C@H](N3CCN(c4ccccc4OC(C)C)CC3)CC2)c1 [Cpd 36, N-trans-{4-[4-(2-Isopropoxy-phenyl)-piperazin-1-yl]-cyclohexyl}-2,5-dimethoxy-benzenesulfonamide] | – | 424 nM | 56 nM | –
CC(C)Oc1ccccc1N1CCN([C@H]2CC[C@@H](NS(=O)(=O)c3ccc(S(C)(=O)=O)cc3)CC2)CC1 [Cpd 6, N-cis-{4-[4-(2-Isopropoxy-phenyl)-piperazin-1-yl]-cyclohexyl}-4-methanesulfonyl-benzenesulfonamide] | – | 195 nM | – | 3.4 nM
CC(C)Oc1ccccc1N1CCN([C@H]2CC[C@H](NS(=O)(=O)c3ccccc3F)CC2)CC1 [Cpd 49, 2-Fluoro-N-trans-{4-[4-(2-isopropoxy-phenyl)-piperazin-1-yl]-cyclohexyl}-benzenesulfonamide] | – | 385 nM | 30 nM | –
CC(C)Oc1ccccc1N1CCN([C@H]2CC[C@H](NS(=O)(=O)c3cccc(Cl)c3F)CC2)CC1 [Cpd 51, 3-Chloro-2-fluoro-N-trans-{4-[4-(2-isopropoxy-phenyl)-piperazin-1-yl]-cyclohexyl}-benzenesulfonamide] | – | 348 nM | – | 24 nM
CC(C)Oc1ccccc1N1CCN([C@H]2CC[C@H](NS(=O)(=O)c3cccc(C(F)(F)F)c3)CC2)CC1 [Cpd 30, N-trans-{4-[4-(2-Isopropoxy-phenyl)-piperazin-1-yl]-cyclohexyl}-3-trifluoromethyl-benzenesulfonamide] | – | 204 nM | 49 nM | –
CC(C)Oc1ccccc1N1CCN([C@H]2CC[C@@H](NS(=O)(=O)c3cccc(C(F)(F)F)c3)CC2)CC1 [Cpd 2, N-cis-{4-[4-(2-Isopropoxy-phenyl)-piperazin-1-yl]-cyclohexyl}-3-trifluoromethyl-benzenesulfonamide] | – | 276 nM | – | –
CC(C)Oc1ccccc1N1CCN([C@H]2CC[C@H](NS(=O)(=O)c3cccc(C(F)(F)F)c3)CC2)CC1 [Cpd 44, N-trans-{4-[4-(2-Isopropoxy-phenyl)-piperazin-1-yl]-cyclohexyl}-3-trifluoromethyl-benzenesulfonamide] | – | 334 nM | 34.7 nM | –
CC(C)Oc1ccccc1N1CCN([C@H]2CC[C@H](NS(=O)(=O)c3ccc(S(C)(=O)=O)cc3)CC2)CC1 [Cpd 34, N-trans-{4-[4-(2-Isopropoxy-phenyl)-piperazin-1-yl]-cyclohexyl}-4-methanesulfonyl-benzenesulfonamide] | – | 392 nM | – | 22 nM
COc1ccc(Br)cc1S(=O)(=O)N[C@H]1CC[C@H](N2CCN(c3ccccc3OC(C)C)CC2)CC1 [Cpd 56, 5-Bromo-N-trans-{4-[4-(2-isopropoxy-phenyl)-piperazin-1-yl]-cyclohexyl}-2-methoxy-benzenesulfonamide] | – | 131 nM | – | 38 nM
CC(C)Oc1ccccc1N1CCN([C@H]2CC[C@@H](NS(=O)(=O)c3ccccc3C#N)CC2)CC1 [Cpd 27, 2-Cyano-N-cis-{4-[4-(2-isopropoxy-phenyl)-piperazin-1-yl]-cyclohexyl}-benzenesulfonamide] | – | 217 nM | – | 6.3 nM
CC(C)Oc1ccccc1N1CCN([C@H]2CC[C@H](NS(=O)(=O)c3ccccc3C#N)CC2)CC1 [Cpd 55, 2-Cyano-N-trans-{4-[4-(2-isopropoxy-phenyl)-piperazin-1-yl]-cyclohexyl}-benzenesulfonamide] | – | 31 nM | – | 3.2 nM
COc1ccc(S(=O)(=O)N[C@H]2CC[C@H](N3CCN(c4ccccc4OC(C)C)CC3)CC2)cc1OC [Cpd 35, N-trans-{4-[4-(2-Isopropoxy-phenyl)-piperazin-1-yl]-cyclohexyl}-3,4-dimethoxy-benzenesulfonamide] | 24 nM | 126 nM | – | –
CC(C)Oc1ccccc1N1CCN([C@H]2CC[C@@H](NS(=O)(=O)c3cccc(Cl)c3F)CC2)CC1 [Cpd 23, 3-Chloro-2-fluoro-N-cis-{4-[4-(2-isopropoxy-phenyl)-piperazin-1-yl]-cyclohexyl}-benzenesulfonamide] | – | 195 nM | – | 3 nM
COc1ccc(OC)c(S(=O)(=O)N[C@H]2CC[C@@H](N3CCN(c4ccccc4OC(C)C)CC3)CC2)c1 [Cpd 8, N-cis-{4-[4-(2-Isopropoxy-phenyl)-piperazin-1-yl]-cyclohexyl}-2,5-dimethoxy-benzenesulfonamide] | – | 167 nM | 9.6 nM | –
CC(C)Oc1ccccc1N1CCN([C@H]2CC[C@H](NS(=O)(=O)c3ccc(Cl)cc3F)CC2)CC1 [Cpd 52, 4-Chloro-2-fluoro-N-trans-{4-[4-(2-isopropoxy-phenyl)-piperazin-1-yl]-cyclohexyl}-benzenesulfonamide] | 19 nM | 243 nM | – | –
COc1ccc(Br)cc1S(=O)(=O)N[C@H]1CC[C@@H](N2CCN(c3ccccc3OC(C)C)CC2)CC1 [Cpd 28, 5-Bromo-N-cis-{4-[4-(2-isopropoxy-phenyl)-piperazin-1-yl]-cyclohexyl}-2-methoxy-benzenesulfonamide] | – | 42 nM | – | 0.8 nM
CC(C)Oc1ccccc1N1CCN([C@H]2CC[C@@H](NS(=O)(=O)c3ccccc3F)CC2)CC1 [Cpd 21, 2-Fluoro-N-cis-{4-[4-(2-isopropoxy-phenyl)-piperazin-1-yl]-cyclohexyl}-benzenesulfonamide] | – | 103 nM | 2.7 nM | –
COc1ccc(S(=O)(=O)N[C@H]2CC[C@@H](N3CCN(c4ccccc4OC(C)C)CC3)CC2)cc1OC [Cpd 7, N-cis-{4-[4-(2-Isopropoxy-phenyl)-piperazin-1-yl]-cyclohexyl}-3,4-dimethoxy-benzenesulfonamide] | 1 nM | 109 nM | – | –
